In data set [1] the target is Dual specificity mitogen-activated protein kinase kinase 1 (Homo sapiens, UniProt Q02750).
Description: Inhibition of MEK1-mediated ERK2 T202/Y204 phosphorylation using biotinylated MBP as substrate preincubated for 30 mins measured after 100 mins by cRAF-MEK-ERK enzyme coupled assay
Data set [2] concerns the target Dual specificity mitogen-activated protein kinase kinase; MEK1/2 (Homo sapiens, UniProt P36507+Q02750).
Description: Inhibition of MEK-mediated ERK T202/Y204 phosphorylation in human MDA-MB-231T cells after 1 hr by immunoblotting
Data set [3] concerns Brain. As to the kind of experiment: Drug metabolism in brain of nude NCr mouse xenografted with human MDA-MB-231T cells assessed as 3,4-difluoro-2-(2-fluoro-4-iodophenylamino)benzoic acid level at 30 mg/kg, po measured after 24 hrs by LC-MS analysis. In kind it is ADME, organism-based. The arrangement: dose 30 mg/kg, route oral. The note with it: in vivo.
Data set [4] concerns Brain. Kind of data set: Drug metabolism in brain of nude NCr mouse xenografted with human MDA-MB-231T cells assessed as 3,4-difluoro-2-(2-fluoro-4-iodophenylamino)benzoic acid level at 30 mg/kg, po measured after 2 hrs by LC-MS analysis. The format is ADME, organism-based. On the set-up: dose 30 mg/kg, route oral. The note with it: in vivo. On the technique in general: Xenograft models place foreign cells or tissue in a host animal.

Data set [5] in a line: Drug metabolism in tumor of nude NCr mouse xenografted with human MDA-MB-231T cells assessed as 3,4-difluoro-2-(2-fluoro-4-iodophenylamino)benzoic acid level at 30 mg/kg, po measured after 24 hrs by LC-MS analysis. As to conditions: in vivo. The arrangement: dose 30 mg/kg, route oral. The format is ADME, organism-based, Neoplasm.
The nature of data set [6]: Drug metabolism in tumor of nude NCr mouse xenografted with human MDA-MB-231T cells assessed as 3,4-difluoro-2-(2-fluoro-4-iodophenylamino)benzoic acid level at 30 mg/kg, po measured after 2 hrs by LC-MS analysis. In kind it is ADME, organism-based, Neoplasm. The arrangement: dose 30 mg/kg, route oral. The note with it: in vivo.
The subject of data set [7] is Plasma. As to the kind of experiment: Drug metabolism in plasma of nude NCr mouse xenografted with human MDA-MB-231T cells assessed as 3,4-difluoro-2-(2-fluoro-4-iodophenylamino)benzoic acid level at 30 mg/kg, po measured after 24 hrs by LC-MS analysis. In kind it is ADME, organism-based. The arrangement: dose 30 mg/kg, route oral. As to conditions: in vivo.
Data set [8] deals with Plasma. Kind of data set: Drug metabolism in plasma of nude NCr mouse xenografted with human MDA-MB-231T cells assessed as 3,4-difluoro-2-(2-fluoro-4-iodophenylamino)benzoic acid level at 30 mg/kg, po measured after 2 hrs by LC-MS analysis. As to conditions: in vivo. The format is ADME, organism-based. On the set-up: dose 30 mg/kg, route oral.
For a further data set, the system named is Rattus norvegicus. Kind of data set: Dose normalised AUC (0 to t) in Sprague-Dawley rat at 5 mg/kg, po. The format is ADME, organism-based. On the set-up: dose 5 mg/kg, route oral. The note with it: in vivo.
Data set [9] in a line: Oral bioavailability in Sprague-Dawley rat at 5 mg/kg. The note with it: in vivo. The format is ADME, organism-based.
Data set [10] is described as follows: Clearance in Sprague-Dawley rat at 5 mg/kg, po. The arrangement: dose 5 mg/kg, route oral. In kind it is ADME, organism-based. The note with it: in vivo.
Data set [11] is described as follows: Half life in Sprague-Dawley rat at 5 mg/kg, po. In kind it is ADME, organism-based. The arrangement: dose 5 mg/kg, route oral. The note with it: in vivo.
A short description of data set [12]: Drug metabolism in human liver microsomes at 15 uM after 30 mins. The format is ADME, Microsome. The note with it: read-out: Drug metabolism. In general terms: Microsomes from liver hold many membrane-bound enzymes, among them those of drug oxidation.
Data set [13] is described as follows: Apparent permeability across MDCK cells. In kind it is ADME, cell-based, Canis lupus familiaris. As to conditions: dog.
Data set [14] is described as follows: Drug metabolism in rat liver microsomes at 15 uM after 30 mins. The format is ADME, Microsome. As to conditions: read-out: Drug metabolism.
The subject of data set [15] is Mus musculus. As to the kind of experiment: Inhibition of MEK-mediated ERK T202/Y204 phosphorylation in po dosed nude NCr mouse brain xenografted with human MDA-MB-231T cells from 2 to 24 hrs by immunoblotting. The format is functional.
Data set [16] relates to Mus musculus. Kind of data set: Inhibition of MEK-mediated ERK T202/Y204 phosphorylation in nude NCr mouse brain xenografted with human MDA-MB-231T cells at 30 mg/kg, po after 24 hrs by immunoblotting. In kind it is functional.
A short description of data set [17]: Drug uptake in brain of nude NCr mouse xenografted with human MDA-MB-231T cells at 30 mg/kg, po measured after 24 hrs by LC-MS analysis. The format is ADME, organism-based. On the set-up: dose 30 mg/kg, route oral. As to conditions: read-out: Drug uptake.
For data set [18], the system named is Mus musculus. As to the kind of experiment: Inhibition of MEK-mediated ERK T202/Y204 phosphorylation in nude NCr mouse brain xenografted with human MDA-MB-231T cells at 30 mg/kg, po after 2 hrs by immunoblotting. In kind it is functional.
The nature of data set [19]: Drug uptake in brain of nude NCr mouse xenografted with human MDA-MB-231T cells at 30 mg/kg, po measured after 2 hrs by LC-MS analysis. On the set-up: dose 30 mg/kg, route oral. In kind it is ADME, organism-based. As to conditions: read-out: Drug uptake.
Data set [20] has as its system Mus musculus. As to the kind of experiment: Inhibition of MEK-mediated ERK T202/Y204 phosphorylation in human MDA-MB-231T cells xenografted in nude NCr mouse tumor at 30 mg/kg, po after 24 hrs by immunoblotting. The format is functional.
Data set [21] in a line: Drug uptake in tumor of nude NCr mouse xenografted with human MDA-MB-231T cells at 30 mg/kg, po measured after 24 hrs by LC-MS analysis. The format is ADME, organism-based, Neoplasm. On the set-up: dose 30 mg/kg, route oral. The note with it: read-out: Drug uptake.
Data set [22] deals with Mus musculus. Kind of data set: Inhibition of MEK-mediated ERK T202/Y204 phosphorylation in human MDA-MB-231T cells xenografted in nude NCr mouse tumor at 30 mg/kg, po after 2 hrs by immunoblotting. In kind it is functional.
A short description of data set [23]: Drug uptake in tumor of nude NCr mouse xenografted with human MDA-MB-231T cells at 30 mg/kg, po measured after 2 hrs by LC-MS analysis. The format is ADME, organism-based, Neoplasm. The arrangement: dose 30 mg/kg, route oral. The note with it: read-out: Drug uptake.
The nature of data set [24]: Plasma concentration in nude NCr mouse xenografted with human MDA-MB-231T cells at 30 mg/kg, po measured after 2 hrs by LC-MS analysis. In kind it is ADME, organism-based. The arrangement: dose 30 mg/kg, route oral.
Data set [25] in a line: Plasma concentration in nude NCr mouse xenografted with human MDA-MB-231T cells at 30 mg/kg, po measured after 24 hrs by LC-MS analysis. The format is ADME, organism-based. The arrangement: dose 30 mg/kg, route oral.

Some results are limits rather than exact numbers.

Dual specificity mitogen-activated protein kinase kinase 1, sequence (Q02750 whole entry): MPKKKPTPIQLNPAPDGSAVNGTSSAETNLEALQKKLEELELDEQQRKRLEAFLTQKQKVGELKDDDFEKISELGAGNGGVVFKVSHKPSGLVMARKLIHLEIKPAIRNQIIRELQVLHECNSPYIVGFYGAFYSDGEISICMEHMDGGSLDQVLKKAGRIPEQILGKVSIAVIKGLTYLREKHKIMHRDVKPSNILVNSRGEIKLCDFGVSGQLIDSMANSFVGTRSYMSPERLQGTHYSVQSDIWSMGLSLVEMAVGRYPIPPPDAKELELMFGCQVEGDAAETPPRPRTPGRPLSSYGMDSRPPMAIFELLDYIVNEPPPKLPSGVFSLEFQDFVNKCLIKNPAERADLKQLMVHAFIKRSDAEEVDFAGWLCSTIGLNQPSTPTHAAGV

As to `O=C(NCCC(O)CO)c1ccc(F)c(F)c1Nc1ccc(I)cc1F` (stereo not drawn), the results for the IC50 in [1] and in data set [2] were 801 nM and 128 nM, respectively.

In the case of `O=C(O)c1ccc(F)c(F)c1Nc1ccc(I)cc1F`, the Drug metabolism in the data set with Brain [3] was below 0.005 µM; in the data set on Brain [4], below 0.005 µM; in [5] it was below 0.005 µM; in data set [6], below 0.005 µM; in the data set on Plasma [7], 0.21 µM; in the data set on Plasma [8], 0.01 µM. Besides, the results for the IC50 in data set [1] and in data set [2] were 19.5 nM and 102 nM, respectively.

As for `O=C(c1ccc(F)c(F)c1Nc1ccc(I)cc1F)N1CC(O)C1`, the AUCt/dose in the data set on Rattus norvegicus turned out to be 0.05 µM·h/mg/kg. Besides, the bioavailability in [9] was 19%. The molecule also had a CL/F in data set [10] of 139 mL/min/kg. Also, in data set [11], the half-life is 1.5 h. Moreover, the metabolised at 0.5 h, 15 µM in data set [12] turned out to be 30.8%; in [14], 80.1%. For the same molecule, the Papp in [13] is 39.9 ×10⁻⁶ cm/s.

Take `NCC1(O)CN(C(=O)c2ccc(F)c(F)c2Nc2ccc(I)cc2F)C1`: in the data set with Mus musculus [15], the ED50 is above 30 mg/kg. The inhibition in vivo at 30 mg/kg with Mus musculus [16] came out at 17%; in the data set on Mus musculus [18], 23%; with Mus musculus [20], 44%; with Mus musculus [22], 27%. The concentration at 24 h is 1240 nM in data set [17], 26800 nM in data set [21] and 30 nM in data set [25]. Further, the concentration at 2 h in data set [19] was 730 nM; in data set [23], 7360 nM; in data set [24], 2400 nM. Also, the AUCt/dose in the data set with Rattus norvegicus worked out at 1.57 µM·h/mg/kg. Also, the bioavailability in data set [9] turned out to be 78%. In [10], the apparent clearance CL/F was 12.6 mL/min/kg. In data set [11], this molecule had a half-life of 9.1 h. The Papp in [13] was 4.3 ×10⁻⁶ cm/s. Besides, the metabolised at 0.5 h, 15 µM in [14] was 16.2%. The values for the half-maximal inhibitory concentration (IC50) in data set [1] and in data set [2] were 6.6 nM and 57 nM, respectively.

With `O=C(c1ccc(F)c(F)c1Nc1ccc(I)cc1F)N1CC(O)(CO)C1`, the IC50 in data set [1] was found to be 27 nM; in data set [2], 29 nM.

On to `NC(=O)C1(O)CN(C(=O)c2ccc(F)c(F)c2Nc2ccc(I)cc2F)C1`, for which the IC50 turned out to be 220 nM in [1] and 81 nM in [2].

Regarding `CCNCC1(O)CN(C(=O)c2ccc(F)c(F)c2Nc2ccc(I)cc2F)C1`, the AUCt/dose in the data set with Rattus norvegicus came out at 0.85 µM·h/mg/kg. The bioavailability in [9] amounted to 101%. The molecule further showed a CL/F in data set [10] of 35 mL/min/kg. Further, in [11], the half-life was 5.4 h. The metabolised at 0.5 h, 15 µM in [12] turned out to be 46.3%; in [14] it was 31.5%. In addition, in data set [13], the Papp came out at 20.7 ×10⁻⁶ cm/s.

Regarding `CC(C)NCC1(O)CN(C(=O)c2ccc(F)c(F)c2Nc2ccc(I)cc2F)C1`, in the data set with Rattus norvegicus, the AUCt/dose stood at 0.25 µM·h/mg/kg. Also, the bioavailability in data set [9] came out at 86%. In addition, the CL/F in data set [10] is 99.3 mL/min/kg. In addition, the half-life in data set [11] was 4.9 h. Moreover, the metabolised at 0.5 h, 15 µM in data set [12] was determined as 35.8%; in data set [14], 40.5%. Further, the Papp in data set [13] was found to be 21 ×10⁻⁶ cm/s.

On to `CC(C)(C)NCC1(O)CN(C(=O)c2ccc(F)c(F)c2Nc2ccc(I)cc2F)C1`, for which the IC50 in data set [1] turned out to be 4.8 nM; in [2], 11 nM.

As to `CN(C)CC1(O)CN(C(=O)c2ccc(F)c(F)c2Nc2ccc(I)cc2F)C1`, the IC50 in [1] is 5.1 nM; in data set [2], 14 nM.

With `O=C(c1ccc(F)c(F)c1Nc1ccc(I)cc1F)N1CC(O)(CN2CCCC2)C1`, the IC50 in data set [1] was found to be 7.6 nM; in data set [2], 50 nM.

Consider `O=C(c1ccc(F)c(F)c1Nc1ccc(I)cc1F)N1CC(O)(CN2CCOCC2)C1`, for which the IC50 in data set [1] is 1710 nM; in [2] it was 331 nM.

As to `C[C@H](N)C1(O)CN(C(=O)c2ccc(F)c(F)c2Nc2ccc(I)cc2F)C1`, the AUCt/dose with Rattus norvegicus amounted to 1.03 µM·h/mg/kg. For the same molecule, in [9], the bioavailability amounted to 58%. For the same molecule, the CL/F in data set [10] was 13.3 mL/min/kg. The half-life in data set [11] was 11.4 h. The metabolised at 0.5 h, 15 µM in data set [12] is 2.6%; in data set [14] it was -4.5%. Besides, the Papp in [13] came out at 9.9 ×10⁻⁶ cm/s. Also, the values for the IC50 in data set [1] and in [2] were 5.2 nM and 46 nM, respectively.

Consider `C[C@@H](N)C1(O)CN(C(=O)c2ccc(F)c(F)c2Nc2ccc(I)cc2F)C1`, for which the values for the IC50 in [1] and in data set [2] were 16 nM and 164 nM, respectively.

By IC50 is commonly meant the point on the concentration scale where inhibition reaches its midpoint. Low readings indicate higher potency, high ones lower potency. As a reminder, the CL/F is the apparent clearance, not corrected for the fraction that reaches the circulation. As a reminder, the half-life is the time in which the quantity being followed falls by half. Read a high half-life as slow decline. One may read the Papp as the rate of passage across a membrane or cell layer, normalised by area and donor concentration. One may read the ED50 as the dose at which the effect has come halfway, by size or by number of responders. Lower therefore signals an effect at a small dose. In general, inhibition in vivo refers to the change of the read-out against control, counted positive when it falls. Low readings indicate a response near the control, high ones a response far below the control.

Values taken from ChEMBL document CHEMBL2146470, “Novel Carboxamide-Based Allosteric MEK Inhibitors: Discovery and Optimization Efforts toward XL518 (GDC-0973)” (ACS Med Chem Lett, 2012).
